Measured values from patent US20240415878A1, “Compositions and Methods for Modulating Mitochondrial Function” (Board of Regents, The University of Texas System, priority 2021, published 2024).

Columns and labels:
[1] = test system: hepatocytes; test: Cellular uptake assay (GFAAS, Co normalised to protein); type: in vitro ADME, murine; conditions: intact hepatocytes
Procedure: Cellular uptake assay. Hepatocytes were treated with varying doses of CPACC for 30 minutes, cells were washed in Ca^2+ and Mg^2+ free DPBS, and cell pellets flash-frozen. Pellets were suspended in ice cold lysis buffer (0.1% Triton X-100 and 0.2% HNO3 in ultrapure water). The suspension was vortexed for 30 s and incubated on ice for 45 min. The cell lysate was centrifuged, and the supernatant was transferred to a clean tube prior to analysis. The Co^3+ content of the lysate was determined using graphite furnace atomic absorption spectroscopy (GFAAS) and was normalized to the protein content of the sample, which was determined using the bicinchoninic acid (BCA) assay kit following manufacturer instructions (ThermoFisher). Results are reported as the average mass ratio of Co to protein (pg/μg) in each sample±SEM.

[2] = target: T1, human MRS2 (Homo sapiens, UniProt Q9HD23); test: Dynamic light scattering of purified full-length MRS2 assembly; type: binding; conditions: 0.5 mM
T1 construct: 6xHis (N, cleaved yes); made in house; host or cells: BL21 (DE3) codon+ Escherichia coli, pET-28a
T1 sequence (Q9HD23 58-443): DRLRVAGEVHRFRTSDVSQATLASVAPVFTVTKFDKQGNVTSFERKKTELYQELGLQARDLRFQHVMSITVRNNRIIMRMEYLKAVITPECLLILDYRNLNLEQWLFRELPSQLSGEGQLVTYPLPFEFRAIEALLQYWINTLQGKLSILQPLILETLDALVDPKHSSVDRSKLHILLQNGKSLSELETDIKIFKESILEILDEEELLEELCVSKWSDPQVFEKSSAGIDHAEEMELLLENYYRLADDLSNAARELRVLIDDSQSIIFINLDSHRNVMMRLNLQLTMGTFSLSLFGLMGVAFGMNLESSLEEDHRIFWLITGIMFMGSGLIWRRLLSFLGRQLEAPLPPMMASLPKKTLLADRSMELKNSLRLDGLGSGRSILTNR
Procedure: Next, CPACC was assessed to determine if it directly affects the assembly of purified human MRS2 using dynamic light scattering (DLS). DLS has been used to determine whether the complex stability of proteins/channels is altered by molecular chaperones or drugs (Kitamura et al., 2006). Because of the high sensitivity of DLS to changes in complex sizes, full-length Mrs2 assembly was evaluated in the presence Ca^2+ (5 mM), Mg^2+ (5 mM), Co^2+ (5 mM) or the Mrs2 blocker CPACC (0.5 mM) (FIG. 10K, FIG. 10L, FIG. 10M, FIG. 10N, FIG. 10O). […] A concentration-response assessment confirmed robust decreases in hydrodynamic radii at all CPACC concentrations tested and as low as 10 μM (FIG. 10O).
MRS2 cloning, expression, and purification. The full length human MRS2 (NCBI accession NP_065713.1), identified as MRS258-443 (i.e. residues 58-443) and excluding the mitochondrial targeting sequence, was cloned into pET-28a using Ndel and Xhol restriction sites. […]
Dynamic light scattering (DIS). […] The sample was equilibrated for 5 min at 20° C. before 10 autocorrelation function acquisitions of 5 s each were recorded and averaged. […] The dependence of hydrodynamic size on CPACC concentration was determined using ≈0.5 mg/mL protein supplemented with 0.01 mM, 0.05 mM, 0.1 mM, 0.5 mM or 0.75 mM CPACC, using a similar experimental setup as described above and cumulants analysis.

SMILES: [NH2][Co]([NH2])([NH2])([NH2])([NH2])[Cl] [CPACC, chloropentaammine cobalt (III) chloride]
- cellular accumulation of the compound (intracellular Co) [1]: accumulates in the cell in a dose-dependent manner
- full-length MRS2 complex sizes (DLS) [2]: potently decreased
